From patent publication US7368443B2, “2,6-disubstituted piperidines and piperazine compounds” (University of Kentucky Research Foundation, priority 1999, dated 2008) come the findings set out here.

Like-named read-outs stand apart in the source and are kept apart here. Some results are limits rather than exact numbers.

A word on the Ki: it is the dissociation constant of the complex between target and ligand, obtained from inhibition or displacement. The IC50 is the midpoint of a concentration-inhibition curve.

For assay [1], the target named is T1, dopamine transporter (DAT) (Rattus norvegicus, UniProt P23977).
T1 construct: Striata were homogenized in 20 ml of ice-cold sucrose solution; from tissue; host or cells: striatal synaptosomes
Put plainly: [3H]Dopamine uptake assay, striatal synaptosomes. It is filed as biochemical.

The target in assay [2] is α4β2* nicotinic receptor (Rattus norvegicus, UniProt P09483+P12390). Description: High affinity [3H]nicotine binding assay. Set-up: The pellet containing the striatal membranes was resuspended; from tissue; host or cells: rat striatal membranes.
Assay [3] has as its target T2, α7* nicotinic receptor (Rattus norvegicus, UniProt Q05941).
T2 construct: Whole rat brain (minus cortex, striatum and cerebellum) was homogenized; from tissue; host or cells: rat whole brain membranes (minus cortex, striatum and cerebellum)
Put plainly: [3H]Methyllycaconitine ([3H]MLA) binding assay.

The target in assay [4] is T3, serotonin transporter (SERT) (Rattus norvegicus, UniProt P31652).
T3 construct: Rat hippocampus was homogenized in 20 mL cold 0.32 M sucrose; from tissue; host or cells: rat hippocampal synaptosomes
Put plainly: [3H]5-HT uptake assay, hippocampal synaptosomes. Format: biochemical.

Assay [5] has as its system methamphetamine-evoked endogenous DA release from striatal slices. Put plainly: Methamphetamine-evoked endogenous DA overflow from superfused striatal slices. Format: cell-based. To be noted: read-out: Inhibition of Methamphetamine Evoked DA Overflow IC50 (Mean).
Assay [6] concerns the target α6β2* nicotinic receptor (Rattus norvegicus, UniProt P12390+P43143). Description: Nicotine-evoked [3H]DA overflow from superfused striatal slices. It is filed as cell-based.
Where [7] appears, read: Table 3, earlier study, read-out: Ki [3H]-Nicotine Binding Assay.
Setting [8] is: Table 3, earlier study, read-out: Ki [3H]-Dopamine Uptake Assay.
Setting [9] is: Table 1, rat whole brain membranes, read-out: [3H]MLA Binding (Ki) α7*.
The mark [10] stands for this setting: Table 1, rat striatal membranes, read-out: [3H]Nicotine Binding (Ki) α4β2*.
The mark [11] stands for this setting: Table 1, read-out: [3H]5-HT Uptake (Ki) SERT.
The mark [12] stands for this setting: Table 1, read-out: [3H]DA Uptake (Ki).

Sequence of α4β2* nicotinic receptor (P09483 31-630): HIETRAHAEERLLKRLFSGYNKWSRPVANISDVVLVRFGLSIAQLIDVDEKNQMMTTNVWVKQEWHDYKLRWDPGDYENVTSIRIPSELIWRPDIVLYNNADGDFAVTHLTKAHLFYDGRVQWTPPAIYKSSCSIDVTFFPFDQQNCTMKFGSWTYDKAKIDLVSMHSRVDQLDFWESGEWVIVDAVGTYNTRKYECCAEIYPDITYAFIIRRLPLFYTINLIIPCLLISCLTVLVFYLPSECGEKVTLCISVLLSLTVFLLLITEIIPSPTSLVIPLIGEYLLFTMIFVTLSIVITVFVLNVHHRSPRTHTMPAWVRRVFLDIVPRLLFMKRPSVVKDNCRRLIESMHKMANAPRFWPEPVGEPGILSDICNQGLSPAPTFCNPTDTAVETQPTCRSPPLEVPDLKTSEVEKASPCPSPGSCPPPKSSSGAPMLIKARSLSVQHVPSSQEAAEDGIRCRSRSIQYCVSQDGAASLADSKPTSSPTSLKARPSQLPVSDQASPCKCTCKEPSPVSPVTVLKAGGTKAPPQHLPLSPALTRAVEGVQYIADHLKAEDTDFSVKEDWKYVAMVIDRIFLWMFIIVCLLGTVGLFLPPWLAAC
Sequence of α4β2* nicotinic receptor (P12390 25-500): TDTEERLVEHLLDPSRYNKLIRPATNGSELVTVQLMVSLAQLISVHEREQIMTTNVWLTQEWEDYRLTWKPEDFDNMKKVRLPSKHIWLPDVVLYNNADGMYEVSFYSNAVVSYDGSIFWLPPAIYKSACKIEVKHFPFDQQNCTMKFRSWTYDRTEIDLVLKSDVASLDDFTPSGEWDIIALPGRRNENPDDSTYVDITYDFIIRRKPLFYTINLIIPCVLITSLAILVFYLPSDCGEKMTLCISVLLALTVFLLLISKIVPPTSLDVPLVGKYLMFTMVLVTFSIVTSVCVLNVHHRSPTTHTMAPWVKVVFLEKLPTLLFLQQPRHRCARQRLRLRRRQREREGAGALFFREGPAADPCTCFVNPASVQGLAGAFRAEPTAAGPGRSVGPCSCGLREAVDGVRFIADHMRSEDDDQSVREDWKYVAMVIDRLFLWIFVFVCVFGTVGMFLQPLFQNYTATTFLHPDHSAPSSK
T1 sequence (P23977 whole entry): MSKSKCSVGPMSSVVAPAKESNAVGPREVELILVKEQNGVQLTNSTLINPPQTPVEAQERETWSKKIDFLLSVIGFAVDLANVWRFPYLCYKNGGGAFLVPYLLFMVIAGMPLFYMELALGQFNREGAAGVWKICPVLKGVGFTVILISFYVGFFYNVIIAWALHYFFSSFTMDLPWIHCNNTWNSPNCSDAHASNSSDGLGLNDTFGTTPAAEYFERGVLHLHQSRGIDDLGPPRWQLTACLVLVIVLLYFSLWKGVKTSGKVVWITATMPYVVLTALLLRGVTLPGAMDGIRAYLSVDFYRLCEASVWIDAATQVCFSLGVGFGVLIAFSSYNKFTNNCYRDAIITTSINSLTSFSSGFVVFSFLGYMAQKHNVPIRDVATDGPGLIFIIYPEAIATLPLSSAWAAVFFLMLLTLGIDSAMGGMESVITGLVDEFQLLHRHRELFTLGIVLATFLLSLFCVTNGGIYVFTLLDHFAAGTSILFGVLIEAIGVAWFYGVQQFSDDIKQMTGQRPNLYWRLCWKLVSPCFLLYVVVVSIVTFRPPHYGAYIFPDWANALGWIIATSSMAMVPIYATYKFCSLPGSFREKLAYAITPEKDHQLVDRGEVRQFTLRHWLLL
T2 sequence (Q05941 23-502): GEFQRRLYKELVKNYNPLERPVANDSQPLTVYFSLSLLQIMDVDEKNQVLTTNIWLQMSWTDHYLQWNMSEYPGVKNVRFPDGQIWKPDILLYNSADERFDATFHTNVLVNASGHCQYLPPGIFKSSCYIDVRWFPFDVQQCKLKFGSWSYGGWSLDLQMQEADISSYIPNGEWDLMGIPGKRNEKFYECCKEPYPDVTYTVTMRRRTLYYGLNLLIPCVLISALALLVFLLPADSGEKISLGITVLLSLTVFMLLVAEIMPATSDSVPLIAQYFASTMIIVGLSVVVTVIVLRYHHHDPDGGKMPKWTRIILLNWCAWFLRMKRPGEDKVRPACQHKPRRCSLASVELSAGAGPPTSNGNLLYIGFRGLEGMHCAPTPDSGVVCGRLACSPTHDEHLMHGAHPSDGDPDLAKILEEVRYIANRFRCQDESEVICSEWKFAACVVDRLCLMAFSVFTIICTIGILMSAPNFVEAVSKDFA
T3 sequence (P31652 whole entry): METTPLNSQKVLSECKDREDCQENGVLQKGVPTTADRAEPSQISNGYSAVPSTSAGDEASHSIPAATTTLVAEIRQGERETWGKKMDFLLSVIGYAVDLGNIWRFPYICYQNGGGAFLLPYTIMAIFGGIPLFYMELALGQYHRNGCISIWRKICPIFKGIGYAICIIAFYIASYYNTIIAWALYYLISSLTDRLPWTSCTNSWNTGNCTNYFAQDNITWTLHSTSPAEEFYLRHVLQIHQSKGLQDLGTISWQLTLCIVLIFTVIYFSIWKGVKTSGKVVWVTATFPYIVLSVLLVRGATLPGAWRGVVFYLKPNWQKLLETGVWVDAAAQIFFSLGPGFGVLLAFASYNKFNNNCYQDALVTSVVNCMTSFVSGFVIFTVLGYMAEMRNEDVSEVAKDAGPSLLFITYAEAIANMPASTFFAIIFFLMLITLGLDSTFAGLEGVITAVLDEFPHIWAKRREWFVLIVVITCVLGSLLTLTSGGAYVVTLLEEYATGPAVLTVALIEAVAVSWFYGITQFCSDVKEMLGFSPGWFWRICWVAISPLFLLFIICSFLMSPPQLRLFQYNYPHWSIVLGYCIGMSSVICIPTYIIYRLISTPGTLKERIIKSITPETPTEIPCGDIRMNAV
Sequence of α6β2* nicotinic receptor (P43143 31-493): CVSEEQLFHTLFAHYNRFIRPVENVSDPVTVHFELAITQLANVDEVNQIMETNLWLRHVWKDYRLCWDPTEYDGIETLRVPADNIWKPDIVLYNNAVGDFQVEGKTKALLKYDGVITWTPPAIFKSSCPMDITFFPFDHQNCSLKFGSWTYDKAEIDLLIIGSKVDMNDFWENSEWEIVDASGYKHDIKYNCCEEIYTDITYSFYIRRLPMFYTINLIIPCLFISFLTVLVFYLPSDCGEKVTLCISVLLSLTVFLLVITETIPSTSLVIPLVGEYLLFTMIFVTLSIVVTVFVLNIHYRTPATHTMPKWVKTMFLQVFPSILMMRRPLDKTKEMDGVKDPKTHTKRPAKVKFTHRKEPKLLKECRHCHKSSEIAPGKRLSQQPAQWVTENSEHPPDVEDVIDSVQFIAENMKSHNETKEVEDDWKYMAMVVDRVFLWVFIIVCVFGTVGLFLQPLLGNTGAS
Sequence of α6β2* nicotinic receptor (P12390 25-500): as the sequence (P12390 25-500) above

As for `CN1[C@H](CCc2ccccc2)CCC[C@@H]1CC(O)c1ccccc1` (mixture of isomers) [Compound 60], the Ki is 8.9 µM in assay [1] (Ki [3H]-Dopamine Uptake Assay) and 0.16 µM in assay [2] (setting [7]).
For the compound `CN1[C@@H](C[C@H](O)c2ccccc2)CCC[C@H]1/C=C/c1ccccc1` (relative stereo) [Compound 7, N-Methyl-2R-(2S-hydroxy-2-phenethyl)-6S-trans-styrylpiperidine], the inhibition constant Ki in assay [1] (setting [8]) was 1.3 µM; in assay [3] (setting [9]), above 100 µM; in assay [2] (setting [10]), above 100 µM; in assay [2] (setting [7]), 4.2 µM. Also, the “loss of affinity for the nicotinic receptor compared to lobeline” value in assay [2] (earlier study (Table 3)) is 1000 fold.
Turning to `CN1C(CC(=O)c2ccccc2)CCCC1CC(O)c1ccccc1` (stereo not drawn) [Compound 1, 2-[6-(β-hydroxyphenethyl)-1-methyl-2-piperidyl]-acetophenone, reference compound], the Ki in assay [4] (setting [11]) worked out at 25.7 µM; in assay [1] (setting [12]) it was 29.4 µM; in assay [1] (setting [8]), 45 µM.
For the compound `CN1[C@@H](CC(=O)c2ccccc2)CCC[C@H]1CC(=O)c1ccccc1` [Compound 3], the Ki in assay [4] (setting [11]) is 3.31 µM; in assay [1] (setting [12]), 15.8 µM; in assay [1] (setting [8]) it was 25 µM; in assay [3] (setting [9]), 22.7 µM; in assay [2] (setting [10]), 37.1 µM; in assay [2] (setting [7]), 11 µM.
`CN1[C@@H](C[C@@H](O)c2ccccc2)CCC[C@H]1C[C@H](O)c1ccccc1` [Compound 4, lobelanidine]: the Ki in assay [4] (setting [11]) turned out to be 25.6 µM; in assay [1] (setting [12]), 33.3 µM; in assay [1] (setting [8]), 54 µM; in assay [3] (setting [9]), 3.29 µM; in assay [2] (setting [10]), 3.1 µM; in assay [2] (setting [7]), 0.93 µM. For the same compound, the “inhibition of DAT, potency compared with lobeline” value in assay [1] (Table 1 data) and in assay [1] (earlier study (Table 3)) was “equipotently” in each case.
As to `CN1[C@H](C[C@H](O)c2ccccc2)CCC[C@@H]1/C=C/c1ccccc1` [Compound 8], the results for the inhibition constant Ki in assay [3] and in assay [2] (setting [10]) were above 100 µM and 9.8 µM, respectively.
On to `CN1[C@H](CCc2ccccc2)CCC[C@@H]1C[C@@H](O)c1ccccc1` [Compound 10, N-Methyl-2R-(2R-hydroxy-2-phenethyl)-6S-(2-phenethyl) piperidine], for which the inhibition constant Ki in assay [4] (Table 1, data of a mixture of compound 10 and 11, read-out: [3H]5-HT Uptake (Ki) SERT) is 0.01 µM; in assay [4] (read-out: inhibition of serotonin uptake Ki), 0.01 to 0.38 µM; in assay [1] ([3H]DA Uptake (Ki)) it was 6.62 µM; in assay [3] (setting [9]), 1.25 µM; in assay [2] (setting [10]), above 100 µM.
As for `CN1[C@H](CCc2ccccc2)CCC[C@@H]1C[C@H](O)c1ccccc1` [Compound 11, N-Methyl-2R-(2S-hydroxy-2-phenethyl)-6S-(2-phenethyl) piperidine], the values for the inhibitory constant (Ki) in assay [3] (setting [9]) and in assay [2] (setting [10]) were above 100 µM and 32 µM, respectively.
With `CN1[C@@H](CCc2ccccc2)CCC[C@H]1C[C@H](O)c1ccccc1` [Compound 12], the figures for the inhibitory constant (Ki) in assay [3] (setting [9]) and in assay [2] (setting [10]) were 36.4 µM and 1.21 µM, respectively.
For the compound `CN1[C@@H](CCc2ccccc2)CCC[C@H]1CCc1ccccc1` [Compound 17, N-methyl-2,6-cis-di-(2-phenethyl)piperidine], the half-maximal inhibitory concentration (IC50) in assay [5] (Rattus norvegicus) was 0.43 to 1.25 µM; in assay [5] (superfused rat striatal slices), 0.44 µM. For the same compound, the Ki in assay [4] ([3H]5-HT Uptake (Ki) SERT) came to 1.59 µM; in assay [1] (Ki [3H]-Dopamine Uptake Assay) it was 3 µM; in assay [1] ([3H]DA Uptake (Ki)) it was 1.95 µM; in assay [3] (setting [9]), 43.1 µM; in assay [2] (setting [10]), 77 µM; in assay [2] (setting [7]) it was 14.3 µM.
For the compound `CN1[C@@H](CCc2ccccc2)CCC[C@@H]1CCc1ccccc1` [Compound 19, N-methyl-2R,6R-trans-di-(2-phenethyl)piperidine], the IC50 in assay [5] (Rattus norvegicus) was above 100 µM.
Consider `c1ccc(CC[C@H]2CCC[C@@H](CCc3ccccc3)N2)cc1` [Compound 25, 2,6-cis-diphenethylpiperidine], for which the 50% inhibitory concentration (IC50) in assay [6] (Table 1, inhibition of 10 μM S(−)-nicotine, NI: no inhibition, read-out: Inhibition of Nicotine-Evoked [3H]DA Overflow (IC50) α6β2*) is 0.1 µM; in assay [6] (read-out: inhibition of nicotine-evoked [3H]DA overflow IC50) it was 0.1 to 1 µM. For the same compound, the inhibition constant Ki in assay [4] (setting [11]) is 2.51 µM; in assay [1] (setting [12]), 1.03 µM; in assay [3] it was above 100 µM; in assay [2] (setting [10]) it was above 100 µM.
Consider `CCN1[C@@H](CCc2ccccc2)CCC[C@H]1CCc1ccccc1` [Compound 26, N-ethyl-2,6-cis-diphenethylpiperidine], for which the inhibition constant (Ki) in assay [3] and in assay [2] (setting [10]) was above 100 µM each time.
With `CCCN1[C@@H](CCc2ccccc2)CCC[C@H]1CCc1ccccc1` [Compound 27, N-(n-propyl)-2,6-cis-diphenethylpiperidine], the Ki in assay [3] and in assay [2] (setting [10]) was above 100 µM throughout.
In the case of `c1cc2c(cc1CC[C@H]1CCC[C@@H](CCc3ccc4c(c3)OCO4)N1)OCO2` [Compound 28], the inhibition constant Ki in assay [3] (setting [9]) and in assay [2] (setting [10]) was above 100 µM throughout.
Consider `Fc1ccccc1CC[C@H]1CCC[C@@H](CCc2ccccc2F)N1` [Compound 30, 2,6-cis-di-(o-fluorophenethyl)piperidine], for which the Ki in assay [3] (setting [9]) and in assay [2] (setting [10]) was above 100 µM throughout.
Regarding `CN1[C@@H](CCc2ccccc2F)CCC[C@H]1CCc1ccccc1F` [Compound 31, N-methyl-2,6-cis-di-(o-fluorophenethyl)piperidine], the Ki in assay [3] (setting [9]) and in assay [2] (setting [10]) was above 100 µM throughout.
Take `Fc1cccc(CC[C@H]2CCC[C@@H](CCc3cccc(F)c3)N2)c1` [Compound 32, 2,6-cis-di-(m-fluorophenethyl)piperidine]: the Ki in assay [3] (setting [9]) is above 100 µM.
As to `CN1[C@@H](CCc2cccc(F)c2)CCC[C@H]1CCc1cccc(F)c1` [Compound 33, N-methyl-2,6-cis-di-(m-fluorophenethyl)piperidine], the inhibitory constant (Ki) in assay [3] (setting [9]) and in assay [2] (setting [10]) was above 100 µM each time.
On to `Fc1ccc(CC[C@H]2CCC[C@@H](CCc3ccc(F)cc3)N2)cc1` [Compound 34, 2,6-cis-di-(p-fluorophenethyl)piperidine], for which the Ki in assay [3] (setting [9]) and in assay [2] (setting [10]) was above 100 µM throughout.
As for `CN1[C@@H](CCc2ccc(F)cc2)CCC[C@H]1CCc1ccc(F)cc1` [Compound 35, N-methyl-2,6-cis-di-(p-fluorophenethyl)piperidine], the Ki in assay [3] (setting [9]) and in assay [2] (setting [10]) was above 100 µM each time.
Regarding `COc1ccccc1CC[C@H]1CCC[C@@H](CCc2ccccc2OC)N1` [Compound 36, 2,6-cis-di-(o-methoxyphenethyl)piperidine], the inhibition constant Ki in assay [3] (setting [9]) and in assay [2] (setting [10]) was above 100 µM in each case.
For `COc1cccc(CC[C@H]2CCC[C@@H](CCc3cccc(OC)c3)N2)c1` [Compound 38, 2,6-cis-di-(m-methoxyphenethyl)piperidine], the inhibitory constant (Ki) in assay [3] (setting [9]) and in assay [2] (setting [10]) was above 100 µM throughout.
Take `COc1ccc(CC[C@H]2CCC[C@@H](CCc3ccc(OC)cc3)N2)cc1` [Compound 40, 2,6-cis-di-(p-methoxyphenethyl)piperidine]: the Ki in assay [3] (setting [9]) and in assay [2] (setting [10]) was above 100 µM each time.
Take `COc1ccc(CC[C@H]2CCC[C@@H](CCc3ccc(OC)cc3)N2C)cc1` [Compound 41, N-methyl-2,6-cis-di-(p-methoxyphenethyl)piperidine]: the Ki in assay [3] (setting [9]) and in assay [2] (setting [10]) was above 100 µM in each case.
With `Cc1ccc(CC[C@H]2CCC[C@@H](CCc3ccc(C)cc3)N2)cc1` [Compound 42, 2,6-cis-di-(p-methylphenethyl)piperidine], the Ki in assay [3] (setting [9]) and in assay [2] (setting [10]) was above 100 µM in each case.
On to `Cc1ccc(CC[C@H]2CCC[C@@H](CCc3ccc(C)cc3)N2C)cc1` [Compound 43, N-methyl-2,6-cis-di-(p-methylphenethyl)piperidine], for which the inhibition constant (Ki) in assay [3] (setting [9]) is above 100 µM.
In the case of `FC(F)(F)c1cccc(CC[C@H]2CCC[C@@H](CCc3cccc(C(F)(F)F)c3)N2)c1` [Compound 44, 2,6-cis-di-(m-trifluoromethylphenethyl)piperidine], the Ki in assay [3] (setting [9]) and in assay [2] (setting [10]) was above 100 µM each time.
With `CN1[C@@H](CCc2cccc(C(F)(F)F)c2)CCC[C@H]1CCc1cccc(C(F)(F)F)c1` [Compound 45, N-methyl-2,6-cis-di-(m-trifluoromethylphenethyl)piperidine], the Ki in assay [3] (setting [9]) and in assay [2] (setting [10]) was above 100 µM each time.
For the compound `OCc1ccc(CC[C@H]2CCC[C@@H](CCc3ccc(CO)cc3)N2)cc1` [Compound 48, 2,6-cis-di-(p-hydroxymethylphenethyl)piperidine], the inhibition constant Ki in assay [3] (setting [9]) and in assay [2] (setting [10]) was above 100 µM throughout.
On to `CC(=O)OCc1ccc(CC[C@H]2CCC[C@@H](CCc3ccc(COC(C)=O)cc3)N2)cc1` [Compound 49, 2,6-cis-di-(p-acetoxymethylphenethyl)piperidine], for which the Ki in assay [3] (setting [9]) and in assay [2] (setting [10]) was above 100 µM throughout.
For `Clc1ccc(CC[C@H]2CCC[C@@H](CCc3ccc(Cl)cc3Cl)N2)c(Cl)c1` [Compound 50, 2,6-cis-di-(2,4-dichlorophenethyl)piperidine], the Ki in assay [3] (setting [9]) and in assay [2] (setting [10]) was above 100 µM throughout.
Consider `CN1[C@@H](CCc2ccc(Cl)cc2Cl)CCC[C@H]1CCc1ccc(Cl)cc1Cl` [Compound 51, N-methyl-2,6-cis-di-(2,4-dichlorophenethyl)piperidine], for which the Ki in assay [3] (setting [9]) and in assay [2] (setting [10]) was above 100 µM each time.
